Experimental data taken from patent publication US6673549B1, “Genes expressed in C3A liver cell cultures treated with steroids” (Incyte Corporation, priority 2000, dated 2004).

What was measured:
[1] = test system: human C3A liver cells; test: Microarray differential gene expression in human C3A liver cell cultures treated with steroids; format: cell-based
Description: Incyte clones represent template sequences derived from the LWESEQ GOLD assembled human sequence database (Incyte Genomics). In cases where more than one clone was available for a particular template, the 5′-most clone in the template was used on the microarray. The HUMAN GENOME GEM series 1-4 microarrays (Incyte Genomics) contain 28,626 array elements which represent 10,068 annotated clusters and 18,558 unannotated clusters. For the UNIGEM series microarrays (Incyte Genomics), Incyte clones were mapped to non-redundant Unigene clusters (Unigene database (build 46), NCBI; Shuler (1997) J Mol Med 75:694-698), and the 5′ clone with the strongest BLAST alignment (at least 90% identity and 100 bp overlap) was chosen, verified, and used in the construction of the microarray. The UNIGEM V microarray (Incyte Genomics) contains 7075 array elements which represent 4610 annotated genes and 2,184 unannotated clusters.
To construct microarrays, cDNAs were amplified from bacterial cells using primers complementary to vector sequences flanking the cDNA insert. […] Amplified cDNAs were then purified using […]-400 columns (APB). Purified cDNAs were immobilized on polymer-coated glass slides. Glass microscope slides (Corning, Corning N.Y.) were cleaned by ultrasound in 0.1% SDS and acetone, with extensive distilled water washes between and after treatments. Glass slides were etched in 4% hydrofluoric acid (VWR Scientific Products, West Chester Pa.), washed thoroughly in distilled water, and coated with 0.05% aminopropyl silane (Sigma Aldrich) in 95% ethanol. Coated slides were cured in a 110° C. oven. cDNAs were applied to the coated glass substrate using a procedure described in U.S. Pat. No. 5,807,522. One microliter of the cDNA at an average concentration of 100 ng/μl was loaded into the open capillary printing element by a high-speed robotic apparatus which then deposited about 5 nl of cDNA per slide.
Microarrays were UV-crosslinked using a […] UV-crosslinker (Stratagene), and then washed at room temperature once in 0.2% SDS and three times in distilled water. Non-specific binding sites were blocked by incubation of microarrays in 0.2% casein in phosphate buffered saline (Tropix, Bedford Mich.) for 30 minutes at 60° C. followed by washes in 0.2% SDS and distilled water as before.
In all cases, mRNA from untreated early confluent C3A cells were prepared in parallel as described below.
Cells were harvested and lysed in 1 ml of TRIZOL reagent (5×10^6 cells/ml; Life Technologies). Lysates were vortexed thoroughly, incubated at room temperature for 2-3 minutes, and extracted with 0.5 ml chloroform. The extract was mixed, incubated at room temperature for 5 minutes, and centrifuged at 15,000 rpm for 15 minutes at 4° C. The aqueous layer was collected, and an equal volume of isopropanol was added. Samples were mixed, incubated at room temperature for 10 minutes, and centrifuged at 15,000 rpm for 20 minutes at 4° C. The supernatant was removed, and the RNA pellet was washed with 1 ml of 70% ethanol, centrifuged at 15,000 rpm at 4° C., and resuspended in RNAse-free water. The concentration of the RNA was determined by measuring the optical density at 260 nm.
Poly(A) RNA was prepared using an OLIGOTEX mRNA kit (Qiagen) with the following modifications: OLIGOTEX beads were washed in tubes instead of on spin columns, resuspended in elution buffer, and then loaded onto spin columns to recover mRNA. To obtain maximum yield, the mRNA was eluted twice.
Each poly(A) RNA sample was reverse transcribed using MMLV reverse-transcriptase, 0.05 pg/μl oligo-d(T) primer (21mer), 1× first strand buffer, 0.03 units/ul RNAse inhibitor, 500 uM dATP, 500 uM dGTP, 500 uM dTTP, 40 uM dCTP, and 40 uM either dCTP-Cy3 or dCTP-Cy5 (APB).

[2] = intranasal; cited from earlier work

C[C@H]1C[C@H]2[C@@H]3CCC4=CC(=O)C=C[C@]4(C)[C@@]3(Cl)[C@@H](O)C[C@]2(C)[C@@]1(O)C(=O)CO [beclomethasone]
Ave DE [log2] (C3A treated with steroid) ([1]; Clone ID 400654): 1.06 log2 | Ave DE [log2] (C3A treated with steroid) ([1]; Clone ID 517374): 0.40 log2 | Ave DE [log2] (C3A treated with steroid) ([1]; Clone ID 615776): 1.01 log2 | Ave DE [log2] (C3A treated with steroid) ([1]; Clone ID 654246): −0.95 log2 | Ave DE [log2] (C3A treated with steroid) ([1]; Clone ID 668460): 1.23 log2 | Ave DE [log2] (C3A treated with steroid) ([1]; Clone ID 963331): −1.01 log2 | Ave DE [log2] (C3A treated with steroid) ([1]; Clone ID 1275616): 0.94 log2 | Ave DE [log2] (C3A treated with steroid) ([1]; Clone ID 1323616): 1.09 log2 | Ave DE [log2] (C3A treated with steroid) ([1]; Clone ID 1329625): 0.35 log2 | Ave DE [log2] (C3A treated with steroid) ([1]; Clone ID 1573840): 0.97 log2 | Ave DE [log2] (C3A treated with steroid) ([1]; Clone ID 1604437): 0.47 log2 | Ave DE [log2] (C3A treated with steroid) ([1]; Clone ID 1662870): −0.76 log2 | Ave DE [log2] (C3A treated with steroid) ([1]; Clone ID 1697719): −0.69 log2 | Ave DE [log2] (C3A treated with steroid) ([1]; Clone ID 1723834): 0.47 log2 | Ave DE [log2] (C3A treated with steroid) ([1]; Clone ID 1857044): 0.61 log2 | Ave DE [log2] (C3A treated with steroid) ([1]; Clone ID 1876829): −1.00 log2 | Ave DE [log2] (C3A treated with steroid) ([1]; Clone ID 1951845): 1.01 log2 | Ave DE [log2] (C3A treated with steroid) ([1]; Clone ID 1995520): 0.82 log2 | Ave DE [log2] (C3A treated with steroid) ([1]; Clone ID 2046717): 0.98 log2 | Ave DE [log2] (C3A treated with steroid) ([1]; Clone ID 2086783): −0.88 log2 | Ave DE [log2] (C3A treated with steroid) ([1]; Clone ID 2095329): −0.99 log2 | Ave DE [log2] (C3A treated with steroid) ([1]; Clone ID 2285181): −0.88 log2 | Ave DE [log2] (C3A treated with steroid) ([1]; Clone ID 2287703): −0.99 log2 | Ave DE [log2] (C3A treated with steroid) ([1]; Clone ID 2287724): −1.05 log2 | Ave DE [log2] (C3A treated with steroid) ([1]; Clone ID 2294968): −0.73 log2 | Ave DE [log2] (C3A treated with steroid) ([1]; Clone ID 2372040): −1.05 log2 | Ave DE [log2] (C3A treated with steroid) ([1]; Clone ID 2430165): 1.04 log2 | Ave DE [log2] (C3A treated with steroid) ([1]; Clone ID 2506425): 0.88 log2 | Ave DE [log2] (C3A treated with steroid) ([1]; Clone ID 2636759): 0.81 log2 | Ave DE [log2] (C3A treated with steroid) ([1]; Clone ID 2695371): 0.51 log2 | Ave DE [log2] (C3A treated with steroid) ([1]; Clone ID 2947188): −1.02 log2 | Ave DE [log2] (C3A treated with steroid) ([1]; Clone ID 3047143): 1.10 log2 | Ave DE [log2] (C3A treated with steroid) ([1]; Clone ID 3057272): 0.83 log2 | Ave DE [log2] (C3A treated with steroid) ([1]; Clone ID 3528232): 0.38 log2 | Ave DE [log2] (C3A treated with steroid) ([1]; Clone ID 3687607): 1.03 log2 | Ave DE [log2] (C3A treated with steroid) ([1]; Clone ID 3960194): 1.00 log2 | Ave DE [log2] (C3A treated with steroid) ([1]; Clone ID 3973687): 1.23 log2 | Ave DE [log2] (C3A treated with steroid) ([1]; Clone ID 3973887): −0.91 log2 | Ave DE [log2] (C3A treated with steroid) ([1]; Clone ID 4087621): 0.89 log2 | Ave DE [log2] (C3A treated with steroid) ([1]; Clone ID 4215034): 1.13 log2 | Ave DE [log2] (C3A treated with steroid) ([1]; Clone ID 4253663): −0.70 log2 | Ave DE [log2] (C3A treated with steroid) ([1]; Clone ID 4284270): −0.70 log2 | Ave DE [log2] (C3A treated with steroid) ([1]; Clone ID 4855265): 1.00 log2 | Ave DE [log2] (C3A treated with steroid) ([1]; Clone ID 4863677): 1.09 log2 | Ave DE [log2] (C3A treated with steroid) ([1]; Clone ID 4894508): −0.93 log2 | Ave DE [log2] (C3A treated with steroid) ([1]; Clone ID 5091002): −1.13 log2 | anti-inflammatory and vasoconstrictive effects relative to hydrocortisone [2]: 5000 times greater
